This passage reports IC50 results from patent US7659263B2, “Thienopyrrole compound and use thereof as HCV polymerase inhibitor” (Japan Tobacco Inc., priority 2004, dated 2010).

In one assay the target is T1, NS5B 1a (Hepatitis C virus genotype 1a, UniProt P27958).
T1 construct: NS5B 1a
Put plainly: Assay of enzyme (HCV polymerase) inhibitory activity, NS5B 1a. It is filed as biochemical. The note with it: HCV polymerase NS5B 1a; [3H]UTP incorporation, 25° C., 90 min.

The target of a further assay is T2, NS5B 1b (Hepatitis C virus genotype 1b, UniProt P26663).
T2 construct: a region encoding NS5B (J Virol 1991 March, 65(3), 1105-13, 544 amino acids after deletion of 47 amino acids on the C-terminal); 6 His (C); made in house; host or cells: Escherichia coli
T2 sequence (P26663 2420-2963): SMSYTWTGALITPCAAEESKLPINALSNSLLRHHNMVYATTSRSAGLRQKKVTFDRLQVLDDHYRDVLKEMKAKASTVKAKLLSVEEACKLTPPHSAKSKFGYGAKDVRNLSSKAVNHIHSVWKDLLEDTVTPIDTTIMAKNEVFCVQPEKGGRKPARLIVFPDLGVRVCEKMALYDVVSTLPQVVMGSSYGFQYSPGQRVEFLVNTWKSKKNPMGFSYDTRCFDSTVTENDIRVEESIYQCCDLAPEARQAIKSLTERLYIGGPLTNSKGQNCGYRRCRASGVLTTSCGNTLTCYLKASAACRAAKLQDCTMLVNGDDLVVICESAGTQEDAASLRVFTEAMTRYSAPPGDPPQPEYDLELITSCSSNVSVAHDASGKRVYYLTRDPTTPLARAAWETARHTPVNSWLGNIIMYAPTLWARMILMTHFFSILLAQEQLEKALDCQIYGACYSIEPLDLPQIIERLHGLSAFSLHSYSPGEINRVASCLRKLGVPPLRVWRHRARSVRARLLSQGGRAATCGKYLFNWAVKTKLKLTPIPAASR
Put plainly: Assay of enzyme (HCV polymerase) inhibitory activity, NS5B 1b. It is filed as biochemical. The text has this:
The evaluation of the HCV polymerase inhibitory activity of the compound of the present invention is explained in the following. This polymerase is an enzyme coded for by the non-structural protein region called NS5B on the genome RNA of HCV (EMBO J., 15:12-22, 1996).
i) Preparation of enzyme (HCV polymerase)
Using, as a template, a cDNA clone corresponding to the full length genome RNA of HCV BK strain obtained from the blood of a patient with hepatitis C, a region encoding NS5B (J Virol 1991 March, 65(3), 1105-13, 544 amino acids after deletion of 47 amino acids on the C-terminal) was amplified by PCR. The objective gene was prepared by adding a 6 His tag {base pair encoding 6 continuous histidine (His)} to the 3′ end thereof and transformed to Escherichia coli. The Escherichia coli capable of producing the objective protein was cultured. The obtained cells were suspended in a buffer solution and crushed in a microfluidizer. The supernatant was obtained by centrifugation and applied to various column chromatographys {mono-S, Sephacryl S-200 (Pharmacia)}, inclusive of metal chelate chromatography, to give a standard enzyme product.
ii) Synthesis of Substrate RNA
Using a synthetic primer designed based on the sequence of HCV genomic 3′ untranslated region, a DNA fragment (148 bp) containing polyU and 3′X sequence was entirely synthesized and cloned into plasmid pBluescript SK II(+) (Stratagene). The cDNA encoding full length NS5B, which was prepared in i) above, was digested with restriction enzyme KpnI to give a cDNA fragment containing the nucleotide sequence of from the restriction enzyme cleavage site to the termination codon. This cDNA fragment was inserted into the upstream of 3′ untranslated region of the DNA in pBluescript SK II(+) and ligated. The about 450 bp inserted DNA sequence was used as a template in the preparation of substrate RNA. This plasmid was cleaved immediately after the 3′X sequence, linearized and purified by phenol-chloroform treatment and ethanol precipitation to give DNA.
RNA was synthesized (37° C., 3 hr) by run-off method using this purified DNA as a template, a promoter of pBluescript SK II(+), MEGAscript RNA synthesis kit (Ambion) and T7 RNA polymerase. DNase I was added and the mixture was incubated for 1 hr. The template DNA was removed by decomposition to give a crude RNA product. This crude product was treated with phenol-chloroform and purified by ethanol precipitation to give the objective substrate RNA.
This RNA was applied to formaldehyde denaturation agarose gel electrophoresis to confirm the quality thereof and preserved at −80° C. iii) Assay of enzyme (HCV polymerase) inhibitory activity A test substance (compound of the present invention) and a reaction mixture (30 μl) having the following composition were reacted at 25° C. for 90 min.
10% Trichloroacetic acid at 4° C. and 1% sodium pyrophosphate solution (150 μl) were added to this reaction mixture to stop the reaction. The reaction mixture was left standing in ice for 15 min to insolubilize RNA. This RNA was trapped on a glass filter (Whatman GF/C and the like) upon filtration by suction. This filter was washed with a solution containing 1% trichloroacetic acid and 0.1% sodium pyrophosphate, washed with 90% ethanol and dried. A liquid scintillation cocktail (Packard) was added and the radioactivity of RNA synthesized by the enzyme reaction was measured on a liquid scintillation counter.
The HCV polymerase inhibitory activity (IC50) of the compound of the present invention was calculated from the values of radioactivity of the enzyme reaction with and without the 20 test substance. […]

Structures are written as SMILES. Structures can show the parent of a compound that is named as a salt.

T1 sequence (P27958 2421-3011): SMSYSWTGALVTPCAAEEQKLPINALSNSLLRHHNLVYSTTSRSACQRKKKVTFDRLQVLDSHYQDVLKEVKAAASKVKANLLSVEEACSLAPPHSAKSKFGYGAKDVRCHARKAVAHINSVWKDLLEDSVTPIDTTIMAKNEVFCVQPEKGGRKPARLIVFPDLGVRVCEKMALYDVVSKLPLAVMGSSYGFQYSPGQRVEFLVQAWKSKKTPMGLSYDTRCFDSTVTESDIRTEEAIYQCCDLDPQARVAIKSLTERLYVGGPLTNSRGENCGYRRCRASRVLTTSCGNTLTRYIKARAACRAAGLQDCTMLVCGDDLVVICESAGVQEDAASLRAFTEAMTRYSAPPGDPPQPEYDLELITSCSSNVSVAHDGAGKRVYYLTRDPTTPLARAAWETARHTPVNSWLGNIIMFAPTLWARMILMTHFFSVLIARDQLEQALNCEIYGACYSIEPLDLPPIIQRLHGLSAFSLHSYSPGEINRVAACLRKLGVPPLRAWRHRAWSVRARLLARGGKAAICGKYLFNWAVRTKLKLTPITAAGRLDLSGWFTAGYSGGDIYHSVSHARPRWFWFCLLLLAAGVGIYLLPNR

Turning to `O=C(O)c1cc2c(s1)c(C1CCCCC1)c1n2CCN(CCN2CCCCCCC2)c2cc(Cl)ccc2-1` [Example 29, 6-[2-(azocan-1-yl)ethyl]-8-chloro-11-cyclohexyl-5,6-dihydro-4H-1-thia-3b,6-diazabenzo[e]cyclopenta[a]azulene-2-carboxylic acid dihydrochloride], the IC50 against NS5B 1a and against NS5B 1b was 10 to 100 nM in each case.
As for `O=C(O)c1cc2c(s1)c(C1CCCCC1)c1n2CCOc2ccccc2-1` [Example 15, 11-cyclohexyl-4,5-dihydro-6-oxa-1-thia-3b-azabenzo[e]cyclopenta[a]azulene-2-carboxylic acid], the IC50 (as a rule, the concentration that inhibits the measured activity by half) against NS5B 1a lay within 100 to 1000 nM; at NS5B 1b it was 10 to 100 nM.
As for `Cc1ccc2c(c1)N(CCN1CCCCCCC1)CCn1c-2c(C2CCCCC2)c2sc(C(=O)O)cc21` [Example 25, 6-[2-(azocan-1-yl)ethyl]-11-cyclohexyl-8-methyl-5,6-dihydro-4H-1-thia-3b,6-diazabenzo[e]cyclopenta[a]azulene-2-carboxylic acid dihydrochloride], the IC50 was 10 to 100 nM against NS5B 1a and below 10 nM on NS5B 1b.
As to `CCOc1ccc2c(c1)OCCn1c-2c(C2CCCCC2)c2sc(C(=O)O)cc21` [Example 41, 11-cyclohexyl-8-ethoxy-4,5-dihydro-6-oxa-1-thia-3b-azabenzo[e]cyclopenta[a]azulene-2-carboxylic acid], the IC50 against NS5B 1a and against NS5B 1b was 10 to 100 nM throughout.
Take `CS(=O)(=O)c1ccc(N2CCOCC2)c(COc2ccc3c(c2)OCCn2c-3c(C3CCCCC3)c3sc(C(N)=O)cc32)c1` [Example 4, 11-cyclohexyl-8-[5-methanesulfonyl-2-(morpholin-4-yl)benzyloxy]-4,5-dihydro-6-oxa-1-thia-3b-azabenzo[e]cyclopenta[a]azulene-2-carboxamide]: the figures for the IC50 on NS5B 1a and at NS5B 1b were 10 to 100 nM and below 10 nM, respectively.
For `CCN1CCN(C(=O)CN2CCn3c(c(C4CCCCC4)c4sc(C(=O)O)cc43)-c3ccccc32)CC1` [Example 14, 11-cyclohexyl-6-[2-(4-ethylpiperazin-1-yl)-2-oxoethyl]-5,6-dihydro-4H-1-thia-3b,6-diazabenzo[e]cyclopenta[a]azulene-2-carboxylic acid dihydrochloride] the same measures were 10 to 100 nM and 10 to 100 nM.
The like results for `COC(=O)N1CCCC(Oc2ccc3c(c2)OCCn2c-3c(C3CCCCC3)c3sc(C(=O)O)cc32)C1` (stereo not shown) [Example 17, 11-cyclohexyl-8-(1-methoxycarbonylpiperidin-3-yloxy)-4,5-dihydro-6-oxa-1-thia-3b-azabenzo[e]cyclopenta[a]azulene-2-carboxylic acid] were, in that order, 10 to 100 nM and 10 to 100 nM.
For `CCN1CCN(C(=O)CN2CCn3c(c(C4CCCCC4)c4sc(C(=O)O)cc43)-c3ccc(C)cc32)CC1` [Example 35, 11-cyclohexyl-6-[2-(4-ethylpiperazin-1-yl)-2-oxoethyl]-8-methyl-5,6-dihydro-4H-1-thia-3b,6-diazabenzo[e]cyclopenta[a]azulene-2-carboxylic acid dihydrochloride] the same measures were 10 to 100 nM and 10 to 100 nM.
Regarding `COCC[C@@H]1CCCN(CCN2CCn3c(c(C4CCCCC4)c4sc(C(=O)O)cc43)-c3ccc(C)cc32)C1` [Example 27, (S)-11-cyclohexyl-6-{2-[3-(2-methoxyethyl)piperidin-1-yl]ethyl}-8-methyl-5,6-dihydro-4H-1-thia-3b,6-diazabenzo[e]cyclopenta[a]azulene-2-carboxylic acid dihydrochloride], the IC50 against NS5B 1a and at NS5B 1b was 10 to 100 nM in each case.
`Cc1ccc2c(c1)N(CCN1CCN(C(=O)OC(C)(C)C)CC1)CCn1c-2c(C2CCCCC2)c2sc(C(=O)O)cc21` [Example 33, 6-[2-(4-tert-butoxycarbonylpiperazin-1-yl)ethyl]-11-cyclohexyl-8-methyl-5,6-dihydro-4H-1-thia-3b,6-diazabenzo[e]cyclopenta[a]azulene-2-carboxylic acid hydrochloride]: the IC50 at NS5B 1a and on NS5B 1b was 10 to 100 nM in each case.
As for `CCN1CCN(C(=O)CN2CCn3c(c(C4CCCCC4)c4sc(C(=O)O)cc43)-c3ccc(Cl)cc32)CC1` [Example 36, 8-chloro-11-cyclohexyl-6-[2-(4-ethylpiperazin-1-yl)-2-oxoethyl]-5,6-dihydro-4H-1-thia-3b,6-diazabenzo[e]cyclopenta[a]azulene-2-carboxylic acid dihydrochloride], the IC50 at NS5B 1a and on NS5B 1b was 10 to 100 nM throughout.
Take `COc1ccc2c(c1)OCCn1c-2c(C2CCCCC2)c2sc(C(=O)NC3(C(=O)Nc4ccc(/C=C/C(=O)O)cc4)CCC3)cc21` [Example 37, (E)-3-[4-({1-[(11-cyclohexyl-8-methoxy-4,5-dihydro-6-oxa-1-thia-3b-azabenzo[e]cyclopenta[a]azulene-2-carbonyl)amino]cyclobutanecarbonyl}amino)phenyl]acrylic acid]: the IC50 at NS5B 1a and at NS5B 1b was 10 to 100 nM each time.
As to `O=C(O)c1cc2c(s1)c(C1CCCCC1)c1n2CCN(CCN2CCCCCCC2)c2ccccc2-1` [Example 21, 6-[2-(azocan-1-yl)ethyl]-11-cyclohexyl-5,6-dihydro-4H-1-thia-3b,6-diazabenzo[e]cyclopenta[a]azulene-2-carboxylic acid dihydrochloride], the IC50 on NS5B 1a is 10 to 100 nM; against NS5B 1b, below 10 nM.
Take `CC(C)(C)OC(=O)N1CCN(CCN2CCn3c(c(C4CCCCC4)c4sc(C(=O)O)cc43)-c3ccccc32)CC1` [Example 11, 6-[2-(4-tert-butoxycarbonylpiperazin-1-yl)ethyl]-11-cyclohexyl-5,6-dihydro-4H-1-thia-3b,6-diazabenzo[e]cyclopenta[a]azulene-2-carboxylic acid hydrochloride]: the IC50 on NS5B 1a and at NS5B 1b was 10 to 100 nM throughout.
In the case of `O=C(O)c1cc2c(s1)c(C1CCCCC1)c1n2CCN(CCN2CCCOCC2)c2cc(Cl)ccc2-1` [Example 32, 8-chloro-11-cyclohexyl-6-[2-(1,4-oxazepan-4-yl)ethyl]-5,6-dihydro-4H-1-thia-3b,6-diazabenzo[e]cyclopenta[a]azulene-2-carboxylic acid dihydrochloride], the IC50 at NS5B 1a is 10 to 100 nM; against NS5B 1b, below 10 nM.
The like results for `CCOc1ccc2c(c1)OCCn1c-2c(C2CCCCC2)c2sc(C(=O)NC3(C(=O)Nc4ccc(/C=C/C(=O)O)cc4)CCC3)cc21` [Example 43, (E)-3-[4-({1-[(11-cyclohexyl-8-ethoxy-4,5-dihydro-6-oxa-1-thia-3b-azabenzo[e]cyclopenta[a]azulene-2-carbonyl)amino]cyclobutanecarbonyl}amino)phenyl]acrylic acid] were, in that order, 10 to 100 nM and 10 to 100 nM.
The like results for `CC(C)(C)OC(=O)N1CCN(CCN2CCn3c(c(C4CCCCC4)c4sc(C(=O)O)cc43)-c3ccc(Cl)cc32)CC1` [Example 34, 6-[2-(4-tert-butoxycarbonylpiperazin-1-yl)ethyl]-8-chloro-11-cyclohexyl-5,6-dihydro-4H-1-thia-3b,6-diazabenzo[e]cyclopenta[a]azulene-2-carboxylic acid hydrochloride] were, in that order, 10 to 100 nM and 10 to 100 nM.
